In paper PMC8400920, “Metabolism of Diterpenoids Derived from the Bark of Cinnamomum cassia in Human Liver Microsomes” (Pharmaceutics, 2021):

Key:
[1] = tested on: human liver microsomes (HLMs); assay: Identification of phase I metabolites of AHC in HLMs; format: in vitro ADME; conditions: 10 µM AHC, 1 mg/mL pooled HLMs, with NGS, 60 min
Experimental: To identify AHC metabolites, 10 µM AHC was incubated with 1 mg/mL pooled HLMs in 0.1 M potassium phosphate buffer (pH 7.4) at 37 °C for 60 min. The reactions were initiated by adding NGS to obtain a final incubation volume of 200 µL. All experiments were conducted in triplicate. The reaction was terminated by adding 400 µL of 100% ACN, and the mixture was vortexed and then centrifuged for 10 min at 15,700× g. Next, the supernatant (550 µL) was transferred to a new tube and dried using a speed-vac concentrator with a cold trap (Labconco, Kansas, MO, USA). Subsequently, the dried samples were reconstituted in 100 µL of 20% MeOH containing 0.1% formic acid before centrifugation at 15,700× g for 10 min. Finally, the mixture was injected into a liquid chromatograph with a tandem mass spectrometer for analysis. […]
The mobile phase consisted of 100% water with 0.1% formic acid (mobile phase A) and 100% ACN with 0.1% formic acid (mobile phase B). […] Data were analyzed using Xcalibur version 4.0 software (Thermo Fisher Scientific, Waltham, MA, USA).
To identify the phase I metabolites of AHC in HLMs, 10 µM AHC was incubated in pooled HLMs without or with the NGS for 60 min. […] The extracted ion chromatograms of the generated AHC metabolites are shown in Figure 2A,B. AHC was detected as a deprotonated ion, [M − H]^−, at m/z 407 and 15.6 min in the negative ion mode. […]

CYPs = assay: Metabolism of AHC in HLMs with SKF-525A, a nonselective CYP inhibitor; format: in vitro ADME, human; conditions: 10 µM AHC, 1 mg/mL HLMs, NGS, 60 min, depending on SKF-525A concentration
Experimental: To investigate CYP-mediated metabolism, 10 µM AHC was mixed with 1 mg/mL pooled HLMs and 0.1 M potassium phosphate buffer (pH 7.4). Then, SKF-525A, a general inhibitor of CYPs, was added at concentrations of 0.5, 1, and 5 mM. The reactions were initiated with the addition of NGS at […] for 60 min. After 60 min, the reactions were terminated by adding 400 µL of 100% acetonitrile. The mixtures were then centrifuged at 15,700× g for 10 min. Subsequently, 550 µL of supernatant was dried in a vacuum concentrator. The residue was dissolved in 100 µL of 20% MeOH (0.1% formic acid), and 5 µL of this sample was injected into a C18 column for LC–MS/MS analysis.
To confirm the metabolism of AHC by CYP enzymes, AHC was incubated in HLMs with SKF-525A, i.e., a nonspecific CYP inhibitor (Figure S7). […] Consequently, as the metabolism of AHC was inhibited by SKF-525A treatment, the production of all metabolites was reduced in an SKF-525A concentration-dependent manner.

SMILES: CC(=O)O[C@@H]1[C@@H](C)CC[C@]2(O)[C@]3(C)CC(=O)O[C@]12[C@@]1(O)C(C)=C(C(C)C)C[C@@]31O [AHC, anhydrocinnzeylanine]
- number of metabolites produced in HLMs [1]: 20
- residual amount of AHC after reaction with SKF-525A (CYPs): significantly increased
